The record followed here is patent EP0966972B1, “Topical composition containing silicon gum” (Dow Corning France S.A., priority 1998, dated 1999).

This series in a line: Substantivity of silicone gum formulation on skin (FT-IR/ATR). It counts as in vivo, human. The conditions noted are these: 10 seconds after spraying. On the procedure: The forearms of volunteers were cleaned and then sprayed in several areas with the formulation of Example 4. […] A FT-IR/ATR cell was used to take an IR spectrum at each area sprayed. […] An IR of the cleansed forearm skin was used as a control blank. The percentage of silicone remaining on the skin was calculated by comparing the height of the specific silicon peak height (1255 cm^-1)/ specific skin peak height (1538 cm^-1) in the blank test.

Regarding `C[Si](C)(C)O[Si](C)(C)C` [HMDS, hexamethyldisiloxane], the “detectability on the skin” value is reported as “not detectable”.
